Type in all cases: cell-based
In series [1] the target is T1, human sodium channel gene SCN5A ion channel (Homo sapiens, UniProt Q14524).
T1 construct: expressed in transfected cells
Kind of series: Patch clamp assay for sodium channel recording. The note with it: HEK 293 cells expressing SCN5A. On the technique in general: The patch-clamp technique gives a direct electrical read-out from membranes.
From the text: All results are reported as mean±SEM. DMSO was used as a vehicle, with the final concentration of DMSO not exceeding 0.1%.
Membrane current recordings were made with a Multiclamp 700 series integrating patch-clamp amplifier (Axon Instruments, Foster City, California) using the whole-cell variant of the conventional patch-clamp technique. Cells expressing sodium SCN5A ion channels were placed in a plexiglass bath chamber, mounted on the stage of an inverted microscope, and perfused continuously with bath solution.
The sodium current bath solution, contained (in mM): 140 NaCl, 4 KCl, 1.8 CaCl2, 1 MgCl2, 10 glucose, 10 HEPES (pH 7.4, NaOH). […]
For determining steady state inhibition, sodium currents were elicited every 5 seconds (0.2 Hz) using the following voltage protocol. […] The peak sodium current in response to the depolarizing step to −20 mV was monitored in the control buffer and after application of test article until a new steady state in the presence of the test article was achieved. […] Rate dependent inhibition was calculated by comparing the average of the last 3 sweeps of 30 voltage sweeps in presence of test article to the average of the last 3 sweeps of 30 voltage sweeps under control conditions at each frequency tested.
Currents were sampled at rates at least 2 times the low pass filter rate. […] All currents were recorded at room temperature ˜25° C.

In the next series the test system is IL17A. Kind of series: Human whole blood assay (IL17A content, AlphaLISA). To be noted: compared with Compound A. In general terms: Bead proximity is the source of the signal in Alpha formats.
A further series deals with T2, RORγ (Homo sapiens, UniProt P51449).
T2 construct: Jurkat pEx/Gal/hRORγCLBD/HYG pG5luc/blast; expressed in transfected cells
T2 sequence (P51449 269-508 limits assumed): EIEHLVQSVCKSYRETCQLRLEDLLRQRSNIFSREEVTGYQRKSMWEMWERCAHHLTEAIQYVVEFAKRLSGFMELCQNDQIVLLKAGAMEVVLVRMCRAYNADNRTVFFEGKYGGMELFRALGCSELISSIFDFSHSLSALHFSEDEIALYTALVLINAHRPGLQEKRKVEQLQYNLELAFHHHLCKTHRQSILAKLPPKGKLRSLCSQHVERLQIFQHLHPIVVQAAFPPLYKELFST
Kind of series: RORγ Gal4 reporter assay (Gal4-luciferase, Jurkat cells). To be noted: Jurkat cells over-expressing RORγ, overnight incubation. As to the method: General RORγ Gal4 Reporter Assay
Inverse agonist activity of potential ligands to RORγ was measured by inhibition of luminescence in a Gal4-luciferase reporter assay in Jurkat cells.
The following day, cells were lysed with 10 μL of Steady-Glo Luciferase Assay System (Promega Cat. No. EZ550), and analyzed immediately. IC50 values were determined.
(A reporter such as luciferase makes a cellular process visible.)

T1 sequence (Q14524 whole entry): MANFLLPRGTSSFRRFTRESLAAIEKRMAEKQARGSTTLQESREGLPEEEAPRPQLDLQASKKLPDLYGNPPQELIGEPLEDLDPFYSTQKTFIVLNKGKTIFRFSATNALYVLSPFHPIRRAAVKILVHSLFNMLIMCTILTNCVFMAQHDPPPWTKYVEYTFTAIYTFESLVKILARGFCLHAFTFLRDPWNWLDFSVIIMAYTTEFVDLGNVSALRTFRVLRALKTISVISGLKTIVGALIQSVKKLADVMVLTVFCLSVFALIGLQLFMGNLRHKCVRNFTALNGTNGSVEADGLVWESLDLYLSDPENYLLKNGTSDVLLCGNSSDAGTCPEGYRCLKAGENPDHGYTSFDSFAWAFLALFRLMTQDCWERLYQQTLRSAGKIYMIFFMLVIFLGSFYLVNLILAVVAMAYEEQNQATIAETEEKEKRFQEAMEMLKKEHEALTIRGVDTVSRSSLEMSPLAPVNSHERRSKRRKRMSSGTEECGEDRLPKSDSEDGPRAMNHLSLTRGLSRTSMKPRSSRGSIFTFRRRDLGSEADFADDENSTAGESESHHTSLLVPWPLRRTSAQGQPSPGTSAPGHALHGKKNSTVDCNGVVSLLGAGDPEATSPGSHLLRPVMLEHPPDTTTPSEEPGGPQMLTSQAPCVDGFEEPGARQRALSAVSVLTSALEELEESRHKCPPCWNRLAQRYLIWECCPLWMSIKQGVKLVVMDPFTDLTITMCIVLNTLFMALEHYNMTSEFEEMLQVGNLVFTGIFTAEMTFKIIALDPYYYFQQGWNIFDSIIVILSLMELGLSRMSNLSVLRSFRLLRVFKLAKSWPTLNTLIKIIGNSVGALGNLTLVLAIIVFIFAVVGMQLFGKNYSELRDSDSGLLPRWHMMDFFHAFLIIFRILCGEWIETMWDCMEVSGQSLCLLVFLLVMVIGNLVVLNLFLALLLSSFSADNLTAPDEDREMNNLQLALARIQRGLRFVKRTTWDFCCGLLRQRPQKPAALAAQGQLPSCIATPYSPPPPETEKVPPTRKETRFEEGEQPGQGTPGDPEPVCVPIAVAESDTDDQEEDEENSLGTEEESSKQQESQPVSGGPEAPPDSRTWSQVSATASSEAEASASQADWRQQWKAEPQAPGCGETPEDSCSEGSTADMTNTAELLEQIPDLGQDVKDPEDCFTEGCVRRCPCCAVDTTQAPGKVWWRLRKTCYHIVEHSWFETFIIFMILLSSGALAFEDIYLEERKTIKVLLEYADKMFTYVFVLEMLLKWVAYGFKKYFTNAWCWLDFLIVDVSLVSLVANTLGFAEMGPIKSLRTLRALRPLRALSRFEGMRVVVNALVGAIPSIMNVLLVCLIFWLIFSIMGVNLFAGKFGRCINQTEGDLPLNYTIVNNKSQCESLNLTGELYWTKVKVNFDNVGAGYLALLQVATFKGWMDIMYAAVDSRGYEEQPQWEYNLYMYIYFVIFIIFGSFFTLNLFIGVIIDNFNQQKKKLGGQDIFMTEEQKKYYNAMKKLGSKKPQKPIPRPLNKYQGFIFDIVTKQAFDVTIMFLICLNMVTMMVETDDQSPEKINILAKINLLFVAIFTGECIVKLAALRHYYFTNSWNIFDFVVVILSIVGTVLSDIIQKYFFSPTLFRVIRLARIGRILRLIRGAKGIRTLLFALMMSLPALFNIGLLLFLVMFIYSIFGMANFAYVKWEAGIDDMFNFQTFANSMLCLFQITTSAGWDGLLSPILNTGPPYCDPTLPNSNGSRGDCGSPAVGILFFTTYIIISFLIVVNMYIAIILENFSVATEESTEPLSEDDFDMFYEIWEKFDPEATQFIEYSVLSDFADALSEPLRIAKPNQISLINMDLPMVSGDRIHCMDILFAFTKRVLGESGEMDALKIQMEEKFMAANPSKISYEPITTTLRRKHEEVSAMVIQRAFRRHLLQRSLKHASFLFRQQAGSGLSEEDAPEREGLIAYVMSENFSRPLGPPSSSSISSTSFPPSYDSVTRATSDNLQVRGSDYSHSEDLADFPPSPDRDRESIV
Method for IL17A: The compounds were diluted in dimethyl sulfoxide (DMSO) and were transferred to individual wells of a Matrix Technologies clear, V-bottom 384-well plate using the ECHO acoustic liquid handling technology (60 nL per well). Human whole blood samples (30 μL) were added to each well using a CyBio FeliX liquid handling instrument and the plate was shaken on a plate shaker for 3 min, incubating at 37° C. for 1 h. Wells were then treated with CD3+CD28 with a final concentration of 1 μg/mL, 30 μL per well in an AIM-V medium, the plate was shaken on a plate shaker for 3 min before incubating the reaction mixtures at 37° C. for 20 h. Plasma was liberated from each sample by centrifugation (450 g, 5 min, ambient temperature).

On to `C[C@@](O)(CS(C)(=O)=O)C(=O)N[C@@H]1CC[C@@]2(S(=O)(=O)c3ccc(F)cc3)c3ccc(C(F)(C(F)(F)F)C(F)(F)F)nc3CC[C@@H]12` [Example 1, (S)—N-((6aS,7R,9aS)-9a-((4-fluorophenyl)sulfonyl)-3-(perfluoropropan-2-yl)-6,6a,7,8,9,9a-hexahydro-5H-cyclopenta[f]quinolin-7-yl)-2-hydroxy-2-methyl-3-(methylsulfonyl)propanamide], for which the “activity in the Na channel assay (in words)” value in series [1] is “essentially inactive”. In series [1] (whole-cell patch clamp, read-out: Na Channel), the IC50 is > 30000 nM. Also, the “potency in the human whole blood assay relative to Compound A” value in the series with IL17A is given as “twice as potent”.

The compound `O=C(N[C@@H]1CC[C@@]2(S(=O)(=O)c3ccc(F)cc3)c3ccc(C(F)(C(F)(F)F)C(F)(F)F)nc3CC[C@@H]12)C1CCS(=O)(=O)CC1` [Example 3] had an IC50 against RORγ of 8.4 nM.

Turning to `CC(C)(O)C(=O)N[C@@H]1CC[C@@]2(S(=O)(=O)c3ccc(F)cc3)c3ccc(C(F)(C(F)(F)F)C(F)(F)F)nc3CC[C@@H]12` [Example 4], on RORγ, the IC50 stood at 3.9 nM.

With `O=C(O)C1CC2(C1)CC(C(=O)N[C@@H]1CC[C@@]3(S(=O)(=O)c4ccc(F)cc4)c4ccc(C(F)(C(F)(F)F)C(F)(F)F)nc4CC[C@@H]13)C2` (stereo partly shown) [Example 6], the IC50 against RORγ worked out at 7.9 nM. Same read-out and setting: the value for `CC(C)(O)CC(=O)N[C@@H]1CC[C@@]2(S(=O)(=O)c3ccc(F)cc3)c3ccc(C(F)(C(F)(F)F)C(F)(F)F)nc3CC[C@@H]12` [Example 2] was 6 nM.

These data come from patent US12570609B2, “Tricyclic sulfones as ROR gamma modulators” (BRISTOL-MYERS SQUIBB COMPANY, priority 2020, dated 2026).
